Assay results: patent publication EP4818185A1, “CRYSTAL FORMS OF 20(S)-PROTOPANAXADIOL, PREPARATION METHOD THEREFOR AND USE THEREOF” (Shanghai Baocheng Tailai Technology Co., Ltd., priority 2023, dated 2025)
Converted amounts (≈) assume the structure as drawn. “And” between values parts separate entries of the source, which are not always exact repeats. Equal entries are not always repeated.

What was measured:
[1] = physchem
Protocol: (§1) 50 mg of each test sample was weighed, and a suspension was prepared using 5.0 mL of purified water, pH 1 buffer, SGF (simulated gastric fluid), FaSSIF (fasted state simulated intestinal fluid), and FeSSIF (fed state simulated intestinal fluid), respectively. After equilibration at 37°C for 1 hour, 2 hours, 4 hours, and 24 hours, filtration was performed to obtain clear solutions. The content of the sample in the saturated solution was measured by HPLC.

[2] = Mechanical stability test (grinding, tableting); format: physicochemical; conditions: for crystal form after grinding: manually ground in agate mortar for about 3 minutes; for crystal form after tableting / crystallinity degree after tableting: tableting under a pressure of 200 MPa
Protocol: An appropriate amount of each test sample was taken, placed respectively in an agate mortar, and manually ground for about 3 minutes, then, the crystal form was measured.
An appropriate amount of each test sample was taken, and added respectively into a tablet press. The crystal form was measured after tableting under a pressure of 200 MPa.

[3] = Solid-state stability test (XRPD crystal form, HPLC purity); format: physicochemical; conditions: for crystal form transformation (XRPD): under three conditions: 80°C sealed 1 day, 25°C/60% RH and 40°C/75% RH open 1 month
Protocol: An appropriate amount of each test sample was weighed, and subjected to stability tests under the following conditions: sealed storage at 80°C for 1 day, and open storage at 25°C/60% RH and 40°C/75% RH for 1 month, respectively. Solid samples separated under different conditions were subjected to XRPD to measure crystal form to evaluate physical stability, and HPLC to measure chemical purity to evaluate chemical stability. […]

[4] = Hygroscopicity test (dynamic vapor sorption, DVS); format: physicochemical; conditions: for Hygroscopic weight gain at 25°C/80% RH (%): DVS; for hygroscopicity: class per Chinese Pharmacopoeia 2020 edition definition
Protocol: The dynamic vapor sorption-desorption (DVS) curves of each sample were tested and plotted, respectively, and the experimental results are shown in table 5, wherein, the DVS profile of the crystal form A in Example 2 is shown in figure 7, the DVS profile of the crystal form B in Example 5 is shown in figure 8, and the DVS profile of the crude 20(S)-protopanaxadiol in Example 1 is shown in figure 9.
Regarding the description of hygroscopicity characteristics and the definition of hygroscopic weight gain (Guidelines for Hygroscopicity Test of Drugs, Chinese Pharmacopoeia 2020 Edition): • Deliquescent: Absorbing sufficient moisture to form a liquid • Highly hygroscopic: Hygroscopic weight gain of not less than 15% • Hygroscopic: Hygroscopic weight gain of less than 15% but not less than 2% • Slightly hygroscopic: Hygroscopic weight gain of less than 2% but not less than 0.2% • Non-hygroscopic or almost non-hygroscopic: Hygroscopic weight gain of less than 0.2%.

[5] = Repose angle test (funnel, cone); format: physicochemical; conditions: for Average repose angle (°): average of three parallel tests; for Repose angle (°): single tests No. 1-3, calculated from cone height and diameter
Protocol: An appropriate amount of each test sample was taken. A funnel was fixed on an iron stand and positioned perpendicularly to the tabletop. The crystal form A and crystal form B samples were added into the funnel, respectively, allowing the sample to freely fall to form a cone. The height and diameter of the cone were measured to calculate the repose angle. Three parallel tests were performed. […]

[6] = Solubility test (suspension equilibrated at 37°C, content by HPLC); conditions: for Solubility, FaSSIF: FaSSIF (fasted state simulated intestinal fluid); for Solubility, FaSSIF / Solubility, SGF: 37°C; for Solubility, SGF: SGF (simulated gastric fluid); for 24-hour solubility relative to LOQ: purified water and pH 1 buffer medium
Protocol: as §1

[7] = Bulk density and tap density test; format: physicochemical; conditions: for Average bulk density / Average tap density: average of three parallel tests; for Average tap density: tapped 200 times; for Bulk density: single tests No. 1-3, approx. 800 mg in 5 mL graduated cylinder; for Tap density: single tests No. 1-3, tapped 200 times
Protocol: Approximately 800 mg of each test sample was taken, and added into a 5 mL graduated cylinder, respectively, and the volume at this point was recorded. The graduated cylinder was lightly tapped against the tabletop 200 times, and the volume at this point was recorded. Three parallel tests were performed.

[8] = Initial (baseline of stability test)

| SMILES | crystal form after grinding [2] | crystal form after tableting [2] | Crystal form change ([3]; 25°C/60% RH/open/1 month) | Purity (area%) ([3]; 25°C/60% RH/open/1 month) | Crystal form change ([3]; 40°C/75% RH/open/1 month) | Purity (area%) ([3]; 40°C/75% RH/open/1 month) | Crystal form change ([3]; 80°C/sealed/1 day) | Purity (area%) ([3]; 80°C/sealed/1 day) | Purity (area%) [3, 8] [area%] | crystal form transformation (XRPD) [3] | Hygroscopic weight gain at 25°C/80% RH (%) [4] [%] | Crystal form change after DVS test [4] | hygroscopicity [4] | Average repose angle (°) [5] [°] | Repose angle (°) [5] | Solubility, FaSSIF ([6]; 1 hour, 60 min) [µg/mL] | Solubility, FaSSIF ([6]; 24 hours, 1440 min) [µg/mL] | solubility in SGF, comparison among crystal forms [6] | Average bulk density [7] [g/mL] | Average tap density [7] [g/mL] | further results |
| --- | --- | --- | --- | --- | --- | --- | --- | --- | --- | --- | --- | --- | --- | --- | --- | --- | --- | --- | --- | --- | --- |
| CC(C)=CCC[C@](C)(O)[C@H]1CC[C@]2(C)[C@@H]1[C@H](O)C[C@@H]1[C@@]3(C)CC[C@H](O)C(C)(C)[C@@H]3CC[C@]12C [Crystal form A, 20(S)-protopanaxadiol] | transformed into amorphous form | did not undergo crystal form transformation | No | 97.20 | No | 97.18 | No | 97.20 | 97.21 | did not undergo crystal form transformation | 0.5763 | Unchanged | slight hygroscopicity | 20.5 | 21.2 ° and 19.0 ° and 21.4 ° | 70 (≈ 152 µM) | 120 (≈ 260 µM) | no significant difference | 0.43 | 0.52 | solubility at 2 h ([1]; fassif): 73 µg/mL (≈ 158 µM); solubility at 4 h ([1]; fassif): 72 µg/mL (≈ 156 µM); solubility at 4 h ([1]; ph 1 buffer, pH 1): 0.11 µg/mL (≈ 0.239 µM); solubility at 24 h ([1]; ph 1 buffer, pH 1): 0.15 µg/mL (≈ 0.326 µM); solubility at 1 h ([1]; sgf (simulated gastric fluid)): 20 µg/mL (≈ 43.4 µM); solubility at 2 h ([1]; sgf (simulated gastric fluid)): 21 µg/mL (≈ 45.6 µM); solubility at 4 h ([1]; sgf (simulated gastric fluid)): 17 µg/mL (≈ 36.9 µM); solubility at 24 h ([1]; sgf (simulated gastric fluid)): 11 µg/mL (≈ 23.9 µM); solubility at 24 h ([1]; water): 0.13 µg/mL (≈ 0.282 µM); solubility at 24 h ([1]; water and ph 1 buffer, pH 1): 0.13 to 0.15 µg/mL (≈ 0.282 to 0.326 µM); chemical purity (HPLC) after storage ([3]; under three conditions): did not show a significant decrease; solubility in FaSSIF, comparison with crystal form B [6]: higher than that of the crystal form B; Bulk density [7]: 0.44 g/mL and 0.46 g/mL and 0.40 g/mL; Tap density [7]: 0.48 g/mL and 0.56 g/mL and 0.51 g/mL |
| CC(C)=CCC[C@](C)(O)[C@H]1CC[C@]2(C)[C@@H]1[C@H](O)C[C@@H]1[C@@]3(C)CC[C@H](O)C(C)(C)[C@@H]3CC[C@]12C [Crystal form B, 20(S)-protopanaxadiol] | transformed into amorphous form | did not undergo crystal form transformation | No | 97.17 | No | 97.15 | No | 97.18 | 97.20 | did not undergo crystal form transformation | 0.2227 | Unchanged | slight hygroscopicity | 24.2 | 25.0 ° and 24.7 ° and 22.8 ° | 34 (≈ 73.8 µM) | 42 (≈ 91.2 µM) | no significant difference | 0.21 | 0.25 | crystallinity degree after tableting [2]: decreased; chemical purity (HPLC) after storage ([3]; under three conditions): did not show a significant decrease; Solubility, FaSSIF ([6]; 2 hours, 120 min): 39 µg/mL (≈ 84.6 µM); Solubility, FaSSIF ([6]; 4 hours, 240 min): 42 µg/mL (≈ 91.2 µM); Solubility, SGF ([6]; 1 hour, 60 min): 18 µg/mL (≈ 39.1 µM); Solubility, SGF ([6]; 2 hours, 120 min): 19 µg/mL (≈ 41.2 µM); Solubility, SGF ([6]; 4 hours, 240 min): 18 µg/mL (≈ 39.1 µM); Solubility, SGF ([6]; 24 hours, 1440 min): 16 µg/mL (≈ 34.7 µM); 24-hour solubility relative to LOQ ([6]; 24 hours): lower than LOQ; Bulk density [7]: 0.22 g/mL and 0.21 g/mL; Tap density [7]: 0.25 g/mL and 0.24 g/mL and 0.26 g/mL |
| CC(C)=CCC[C@](C)(O)[C@H]1CC[C@]2(C)[C@@H]1[C@H](O)C[C@@H]1[C@@]3(C)CC[C@H](O)C(C)(C)[C@@H]3CC[C@]12C [Crystal form D, 20(S)-protopanaxadiol] | transformed into amorphous form | did not undergo crystal form transformation | No | 93.75 | No | 93.00 | No | 94.04 | 96.01 | did not undergo crystal form transformation | 0.3863 | Unchanged | slight hygroscopicity | 36.8 | 36.7 ° and 38.2 ° and 35.5 ° | 110 (≈ 239 µM) | 100 (≈ 217 µM) | no significant difference | 0.14 | 0.21 | solubility at 2 h ([1]; water): 0.13 µg/mL (≈ 0.282 µM); crystallinity degree after tableting [2]: decreased; chemical purity (HPLC) after storage ([3]; open storage at 25°C/60% RH and 40°C/75% RH for 1 month): slightly decreased; purity (HPLC) after storage ([3]; sealed storage at 80°C for 1 day): slightly decreased; Solubility, FaSSIF ([6]; 2 hours, 120 min): 72 µg/mL (≈ 156 µM); Solubility, FaSSIF ([6]; 4 hours, 240 min): 82 µg/mL (≈ 178 µM); Solubility, SGF ([6]; 1 hour, 60 min): 21 µg/mL (≈ 45.6 µM); Solubility, SGF ([6]; 2 hours, 120 min): 17 µg/mL (≈ 36.9 µM); Solubility, SGF ([6]; 4 hours, 240 min): 16 µg/mL (≈ 34.7 µM); Solubility, SGF ([6]; 24 hours, 1440 min): 14 µg/mL (≈ 30.4 µM); solubility in FaSSIF, comparison with crystal form B [6]: higher than that of the crystal form B; 24-hour solubility relative to LOQ ([6]; 24 hours): lower than LOQ; Bulk density [7]: 0.14 g/mL; Tap density [7]: 0.21 g/mL and 0.20 g/mL |
